From patent US20180371044A1, “PEPTIDOMIMETIC MACROCYCLES” (Aileron Therapeutics, Inc., priority 2015, published 2018)
pEC50: −log10 of the molar value. Where a SMILES comes first, the peptide text is derived from it. Bridges are numbered along the chain shown (N, C = ends). [ ]: non-standard residue; d: D form. NMeY = CN[C@@H](Cc1ccc(O)cc1)C(=O)O; R8 = C=CCCCCCC[C@@](C)(N)C(=O)O; Cit = NC(=O)NCCC[C@H](N)C(=O)O; S5 = C=CCCC[C@](C)(N)C(=O)O; Nle = CCCC[C@H](N)C(=O)O; Aib = CC(C)(N)C(=O)O

biological target: T1, human GHRH receptor (hGHRHR) (Homo sapiens, UniProt Q02643); assay: GHRHR agonism measured by cAMP (HTRF) in human 293 cells expressing hGHRHR; type: cell-based; conditions: 30 min at RT;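 further: receptor expressed transiently or stably, cells stimulated in serum-free medium, EC50 from a non-linear dose-response fit, maximal response defined by reference GHRH stimulation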
T1 construct: expressed in transfected cells; host or cells: Human 293 cells
T1 sequence (Q02643 23-423): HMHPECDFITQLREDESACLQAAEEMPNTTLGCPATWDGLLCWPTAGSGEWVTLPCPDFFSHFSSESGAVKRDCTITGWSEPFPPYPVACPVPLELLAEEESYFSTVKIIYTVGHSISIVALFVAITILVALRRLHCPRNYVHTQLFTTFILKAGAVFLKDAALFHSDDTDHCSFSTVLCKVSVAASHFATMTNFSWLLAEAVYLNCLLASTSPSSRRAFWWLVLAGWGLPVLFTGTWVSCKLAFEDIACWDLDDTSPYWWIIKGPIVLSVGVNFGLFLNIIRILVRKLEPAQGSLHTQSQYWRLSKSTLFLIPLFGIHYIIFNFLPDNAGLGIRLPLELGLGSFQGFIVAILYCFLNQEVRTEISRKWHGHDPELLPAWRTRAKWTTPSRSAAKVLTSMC

| pEC50 | SMILES |
| --- | --- |
| ≥ 9.00 | CCCC[C@H](NC(=O)[C@@H](NC(=O)[C@H](CC(=O)O)NC(=O)[C@H](CCC(N)=O)NC(=O)[C@H](CC(C)C)NC(=O)[C@H](C)NC(=O)[C@H](CCCCN)NC(=O)[C@H](CCCNC(=N)N)NC(=O)[C@H](C)NC(=O)[C@H](CO)NC(=O)[C@H](CC(C)C)NC(=O)[C@H](CCC(N)=O)NC(=O)[C@H](C)NC(=O)[C@H](CC(C)C)NC(=O)[C@@H](NC(=O)[C@H](CCCCN)NC(=O)[C@H](CCCNC(=N)N)NC(=O)[C@H](Cc1ccc(O)cc1)NC(=O)[C@H](CO)NC(=O)[C@H](C)NC(=O)[C@@H](NC(=O)[C@H](Cc1ccccc1)NC(=O)[C@@H](NC(=O)[C@H](C)NC(=O)[C@H](CC(=O)O)NC(=O)[C@H](C)NC(=O)[C@H](Cc1ccc(O)cc1)NC)[C@@H](C)CC)[C@@H](C)O)C(C)C)[C@@H](C)CC)C(=O)N[C@@H](CC(=O)O)C(=O)N[C@@H](CCCNC(=N)N)C(N)=O [SP-45] (H-[NMeY]ADAIFTASYRKVLAQLSARKALQDI[Nle]DR-NH2) |
| ≥ 9.00 | CCCC[C@H](NC(=O)[C@@H](NC(=O)[C@H](CC(=O)O)NC(=O)[C@H](CCC(N)=O)NC(=O)[C@H](CC(C)C)NC(=O)[C@H](C)NC(=O)[C@H](CCCCN)NC(=O)[C@H](CCCNC(=N)N)NC(=O)[C@H](C)NC(=O)[C@H](CO)NC(=O)[C@H](CC(C)C)NC(=O)[C@H](CCC(N)=O)NC(=O)[C@H](C)NC(=O)[C@H](CC(C)C)NC(=O)[C@@H](NC(=O)[C@H](CCCCN)NC(=O)[C@H](CCCNC(=N)N)NC(=O)[C@H](Cc1ccc(O)cc1)NC(=O)[C@H](CO)NC(=O)[C@H](C)NC(=O)[C@@H](NC(=O)[C@H](Cc1ccccc1)NC(=O)[C@@H](NC(=O)[C@H](C)NC(=O)[C@H](CC(=O)O)NC(=O)[C@@H](C)NC(=O)[C@@H](N)Cc1ccc(O)cc1)[C@@H](C)CC)[C@@H](C)O)C(C)C)[C@@H](C)CC)C(=O)N[C@@H](CO)C(=O)N[C@@H](CCCNC(=N)N)C(N)=O [SP-46] (H-Y[dA]DAIFTASYRKVLAQLSARKALQDI[Nle]SR-NH2) |
| 8.00 to 9.00 | CCCC[C@H](NC(=O)[C@@H](NC(=O)[C@H](CC(=O)O)NC(=O)[C@H](CCC(N)=O)NC(=O)[C@H](CC(C)C)NC(=O)[C@H](C)NC(=O)[C@H](CCCCN)NC(=O)[C@H](CCCNC(N)=O)NC(=O)[C@H](C)NC(=O)[C@H](CO)NC(=O)[C@H](CC(C)C)NC(=O)[C@H](CCC(N)=O)NC(=O)[C@H](C)NC(=O)[C@H](CC(C)C)NC(=O)[C@@H](NC(=O)[C@H](CCCCN)NC(=O)[C@H](CCCNC(=N)N)NC(=O)[C@H](Cc1ccc(O)cc1)NC(=O)[C@H](CO)NC(=O)[C@H](C)NC(=O)[C@@H](NC(=O)[C@H](Cc1ccccc1)NC(=O)[C@@H](NC(=O)[C@H](C)NC(=O)[C@H](CC(=O)O)NC(=O)[C@H](C)NC(=O)[C@H](Cc1ccc(O)cc1)NC)[C@@H](C)CC)[C@@H](C)O)C(C)C)[C@@H](C)CC)C(=O)N[C@@H](CO)C(=O)N[C@@H](CCCNC(=N)N)C(N)=O [SP-48] (H-[NMeY]ADAIFTASYRKVLAQLSA[Cit]KALQDI[Nle]SR-NH2) |
| ≥ 9.00 | CCCC[C@H](NC(=O)[C@@H](NC(=O)[C@H](CC(=O)O)NC(=O)[C@H](CCC(N)=O)NC(=O)[C@H](CC(C)C)NC(=O)[C@H](C)NC(=O)[C@H](CCCCN)NC(=O)[C@H](CCCNC(=N)N)NC(=O)[C@H](C)NC(=O)[C@H](CO)NC(=O)[C@H](CC(C)C)NC(=O)[C@H](CCC(N)=O)NC(=O)[C@H](C)NC(=O)[C@H](CC(C)C)NC(=O)[C@@H](NC(=O)[C@H](CCCCN)NC(=O)[C@H](CCCNC(=N)N)NC(=O)[C@H](Cc1ccc(O)cc1)NC(=O)[C@H](CO)NC(=O)[C@H](C)NC(=O)[C@@H](NC(=O)[C@H](Cc1ccccc1)NC(=O)[C@@H](NC(=O)[C@H](C)NC(=O)[C@H](CC(=O)O)NC(=O)[C@H](C)NC(=O)[C@H](Cc1ccc(O)cc1)NC)[C@@H](C)CC)[C@@H](C)O)C(C)C)[C@@H](C)CC)C(=O)N[C@@H](CO)C(=O)N[C@@H](CCCNC(N)=O)C(N)=O [SP-49] (H-[NMeY]ADAIFTASYRKVLAQLSARKALQDI[Nle]S[Cit]-NH2) |
| 8.00 to 9.00 | CCCC[C@H](NC(=O)[C@@H](NC(=O)[C@H](CC(=O)O)NC(=O)[C@H](CCC(N)=O)NC(=O)[C@H](CC(C)C)NC(=O)C(C)(C)NC(=O)[C@H](CCCCN)NC(=O)[C@H](CCCNC(=N)N)NC(=O)[C@H](C)NC(=O)[C@H](CO)NC(=O)[C@H](CC(C)C)NC(=O)[C@H](CCC(N)=O)NC(=O)[C@H](C)NC(=O)[C@H](CC(C)C)NC(=O)[C@@H](NC(=O)[C@H](CCCCN)NC(=O)[C@H](CCCNC(=N)N)NC(=O)[C@H](Cc1ccc(O)cc1)NC(=O)[C@H](CO)NC(=O)C(C)(C)NC(=O)[C@@H](NC(=O)[C@H](Cc1ccccc1)NC(=O)[C@@H](NC(=O)[C@H](C)NC(=O)[C@H](CC(=O)O)NC(=O)[C@H](C)NC(=O)[C@H](Cc1ccc(O)cc1)NC)[C@@H](C)CC)[C@@H](C)O)C(C)C)[C@@H](C)CC)C(=O)N[C@@H](CO)C(=O)N[C@@H](CCCNC(=N)N)C(N)=O [SP-52] (H-[NMeY]ADAIFT[Aib]SYRKVLAQLSARK[Aib]LQDI[Nle]SR-NH2) |
| 8.00 to 9.00 | CCCC[C@H](NC(=O)[C@@H](NC(=O)[C@H](CC(=O)O)NC(=O)C(C)(C)NC(=O)[C@H](CC(C)C)NC(=O)[C@H](C)NC(=O)[C@H](CCCCN)NC(=O)[C@H](CCCNC(=N)N)NC(=O)[C@H](C)NC(=O)[C@H](CO)NC(=O)[C@H](CC(C)C)NC(=O)[C@H](CCC(N)=O)NC(=O)[C@H](C)NC(=O)[C@H](CC(C)C)NC(=O)[C@@H](NC(=O)[C@H](CCCCN)NC(=O)[C@H](CCCNC(=N)N)NC(=O)[C@H](Cc1ccc(O)cc1)NC(=O)[C@H](CO)NC(=O)C(C)(C)NC(=O)[C@@H](NC(=O)[C@H](Cc1ccccc1)NC(=O)[C@@H](NC(=O)[C@H](C)NC(=O)[C@H](CC(=O)O)NC(=O)[C@H](C)NC(=O)[C@H](Cc1ccc(O)cc1)NC)[C@@H](C)CC)[C@@H](C)O)C(C)C)[C@@H](C)CC)C(=O)N[C@@H](CO)C(=O)N[C@@H](CCCNC(=N)N)C(N)=O [SP-53] (H-[NMeY]ADAIFT[Aib]SYRKVLAQLSARKAL[Aib]DI[Nle]SR-NH2) |
| 8.00 to 9.00 | CCCC[C@H](NC(=O)[C@@H](NC(=O)[C@H](CC(=O)O)NC(=O)[C@H](C)NC(=O)[C@H](CC(C)C)NC(=O)[C@H](C)NC(=O)[C@H](CCCCN)NC(=O)[C@H](CCCNC(=N)N)NC(=O)[C@H](C)NC(=O)C(C)(C)NC(=O)[C@H](CC(C)C)NC(=O)[C@H](CCC(N)=O)NC(=O)[C@H](C)NC(=O)[C@H](CC(C)C)NC(=O)[C@@H](NC(=O)[C@H](CCCCN)NC(=O)[C@H](CCCNC(=N)N)NC(=O)[C@H](Cc1ccc(O)cc1)NC(=O)[C@H](CO)NC(=O)[C@H](C)NC(=O)[C@@H](NC(=O)[C@H](Cc1ccccc1)NC(=O)[C@@H](NC(=O)[C@H](C)NC(=O)[C@H](CC(=O)O)NC(=O)[C@H](C)NC(=O)[C@H](Cc1ccc(O)cc1)NC)[C@@H](C)CC)[C@@H](C)O)C(C)C)[C@@H](C)CC)C(=O)N[C@@H](CO)C(=O)N[C@@H](CCCNC(=N)N)C(N)=O [SP-54] (H-[NMeY]ADAIFTASYRKVLAQL[Aib]ARKALADI[Nle]SR-NH2) |
| 8.00 to 9.00 | CCCC[C@H](NC(=O)[C@@H](NC(=O)[C@H](CC(=O)O)NC(=O)C(C)(C)NC(=O)[C@H](CC(C)C)NC(=O)[C@H](C)NC(=O)[C@H](CCCCN)NC(=O)[C@H](CCCNC(=N)N)NC(=O)[C@H](C)NC(=O)C(C)(C)NC(=O)[C@H](CC(C)C)NC(=O)[C@H](CCC(N)=O)NC(=O)[C@H](C)NC(=O)[C@H](CC(C)C)NC(=O)[C@@H](NC(=O)[C@H](CCCCN)NC(=O)[C@H](CCCNC(=N)N)NC(=O)[C@H](Cc1ccc(O)cc1)NC(=O)[C@H](CO)NC(=O)C(C)(C)NC(=O)[C@@H](NC(=O)[C@H](Cc1ccccc1)NC(=O)[C@@H](NC(=O)[C@H](C)NC(=O)[C@H](CC(=O)O)NC(=O)[C@H](C)NC(=O)[C@H](Cc1ccc(O)cc1)NC)[C@@H](C)CC)[C@@H](C)O)C(C)C)[C@@H](C)CC)C(=O)N[C@@H](CO)C(=O)N[C@@H](CCCNC(=N)N)C(N)=O [SP-55] (H-[NMeY]ADAIFT[Aib]SYRKVLAQL[Aib]ARKAL[Aib]DI[Nle]SR-NH2) |
| < 7.30 | CCCC[C@H](NC(=O)[C@@H](NC(=O)[C@H](CC(=O)O)NC(=O)[C@H](CCC(N)=O)NC(=O)[C@H](CC(C)C)NC(=O)[C@H](C)NC(=O)[C@H](CCCCN)NC(=O)[C@H](CCCNC(=N)N)NC(=O)[C@]1(C)CCCC=CCCCCCC[C@@](C)(NC(=O)[C@H](CCCNC(=N)N)NC(=O)[C@H](Cc2ccc(O)cc2)NC(=O)[C@H](CO)NC(=O)[C@H](C)NC(=O)[C@@H](NC(=O)[C@H](Cc2ccccc2)NC(=O)[C@@H](NC(=O)[C@H](C)NC(=O)[C@H](CC(=O)O)NC(=O)[C@@H](C)NC(=O)[C@H](Cc2ccc(O)cc2)NC(=O)[C@@H]2CCCN2C(=O)[C@@H]2CCCN2)[C@@H](C)CC)[C@@H](C)O)C(=O)N[C@@H](C(C)C)C(=O)N[C@@H](CC(C)C)C(=O)N[C@@H](C)C(=O)N[C@@H](CCC(N)=O)C(=O)N[C@@H](CC(C)C)C(=O)N[C@@H](CO)C(=O)N1)[C@@H](C)CC)C(=O)N[C@@H](CO)C(=O)N[C@@H](CCCNC(=N)N)C(N)=O [SP-56] (H-PPY[dA]DAIFTASYR[R8]VLAQLS[S5]RKALQDI[Nle]SR-NH2; staple 14-21) |

| SMILES | pEC50 |
| --- | --- |
| CCCC[C@H](NC(=O)[C@@H](NC(=O)[C@H](CC(=O)O)NC(=O)[C@H](CCC(N)=O)NC(=O)[C@H](CC(C)C)NC(=O)[C@H](C)NC(=O)[C@H](CCCCN)NC(=O)[C@H](CCCNC(=N)N)NC(=O)[C@H](C)NC(=O)[C@H](CO)NC(=O)[C@H](CC(C)C)NC(=O)[C@H](CCC(N)=O)NC(=O)[C@H](C)NC(=O)[C@H](CC(C)C)NC(=O)[C@@H](NC(=O)[C@H](CCCCN)NC(=O)[C@H](CCCNC(N)=O)NC(=O)[C@H](Cc1ccc(O)cc1)NC(=O)[C@H](CO)NC(=O)[C@H](C)NC(=O)[C@@H](NC(=O)[C@H](Cc1ccccc1)NC(=O)[C@@H](NC(=O)[C@H](C)NC(=O)[C@H](CC(=O)O)NC(=O)[C@H](C)NC(=O)[C@H](Cc1ccc(O)cc1)NC)[C@@H](C)CC)[C@@H](C)O)C(C)C)[C@@H](C)CC)C(=O)N[C@@H](CO)C(=O)N[C@@H](CCCNC(=N)N)C(N)=O [SP-47] (H-[NMeY]ADAIFTASY[Cit]KVLAQLSARKALQDI[Nle]SR-NH2) | ≥ 9.00 |
